Reference: PMC9961948, “Interaction of Amphipathic Peptide from Influenza Virus M1 Protein with Mitochondrial Cytochrome Oxidase” (International Journal of Molecular Sciences, 2023)
Values joined by “and” are separate entries in the source; they are usually repeats but may differ in a detail not shown here. Identical values can stand only once. “Also recorded” adds a separate entry of the source. Like-named read-outs stand apart in the source and are kept apart here.

Assays:
[1] = target: T1, cytochrome c oxidase (CcO) purified from heart mitochondria (Bos taurus, UniProt P00396+P07471+P68530); test: Cytochrome oxidase activity of solubilized mitochondrial CcO (oxygen uptake); type: biochemical; conditions: for enzyme activation at low concentrations: solubilized CcO from bovine heart mitochondria and from R. sphaeroides, authors' unpublished data
T1 construct: Cytochrome c oxidase was purified from the heart mitochondria of Bos taurus; from tissue; host or cells: bovine heart mitochondria

[2] = target: T1, cytochrome c oxidase (CcO) purified from heart mitochondria; conditions: earlier studies on steroids, Triton X-100 and thyroid hormones; ref [47],[48],[49]; read-out: dissociation constant of the complex between DM and BABS; cited from earlier work
Source text: The inhibition is notable by features characteristic of BABS regulatory site ligands such as some steroids and vitamin D [47], Triton Х-100 [48], and thyroid hormones Т3, Т4 [49]. […] The resistance of peroxidase activity is explained by the fact that the BABS ligands block the proton channel K, which is not involved in the p ...

[3] = target: T2, CcO in rat liver mitochondria (Rattus norvegicus, UniProt P00406+P05503); test: CcO activity in the mitochondrial membrane (respiration of rat liver mitochondria); type: biochemical; conditions: 100 μM peptide added in the course of respiration
T2 construct: Rat liver mitochondria were isolated by differential centrifugation; from tissue; host or cells: rat liver mitochondria

[4] = Permeabilization of calcein-loaded asolectin liposomes (calcein release); conditions: 5 μM peptide

T2 sequence (P00406 whole entry, other chains not shown): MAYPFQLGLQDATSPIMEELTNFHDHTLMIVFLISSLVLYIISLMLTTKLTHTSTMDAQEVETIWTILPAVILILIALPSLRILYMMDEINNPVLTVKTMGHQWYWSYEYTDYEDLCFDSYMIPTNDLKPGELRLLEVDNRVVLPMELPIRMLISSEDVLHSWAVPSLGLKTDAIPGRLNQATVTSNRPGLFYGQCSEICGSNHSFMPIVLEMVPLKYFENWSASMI

For `CCCCCCCCCCCCO[C@@H]1O[C@H](CO)[C@@H](O[C@H]2O[C@H](CO)[C@@H](O)[C@H](O)[C@H]2O)[C@H](O)[C@H]1O` [DM, dodecyl-maltoside, reference compound], the Kd ([1]; dissociation constant of the enzyme-DM complex in the absence of P4 (Kc), solubilized mitochondrial CcO, X-axis intercept of Ki(app) for P4 versus [DM]) is given as 500 µM and ~500 µM and the Kd [2] is given as 1000 to 1500 µM.

With `C[C@H](CCC(=O)O)[C@H]1CC[C@H]2[C@@H]3[C@H](O)C[C@@H]4C[C@H](O)CC[C@]4(C)[C@H]3C[C@H](O)[C@]12C` [cholate, reference compound] the “enzyme activation at low concentrations” value [1] was 1.5–2 fold.

For `C[C@H](CCC(=O)O)[C@H]1CC[C@H]2[C@@H]3CC[C@@H]4C[C@H](O)CC[C@]4(C)[C@H]3C[C@H](O)[C@]12C` [deoxycholate, reference compound], the “enzyme activation at low concentrations” value [1] was 1.5–2 fold and the “maximum activation of CcO” value ([1]; solubilized mitochondrial CcO, 1 mM DM, 1.2 mM deoxycholate) was “approximately twice”.

In the case of Ac-STKLWEMLVELGNMDKAVKLWRKLSR-NH2 [A4], the “effect on respiration rate of mitochondria” value [3] is reported as “complete inhibition”, the “time to reach the 100% level of calcein release” value ([4]; 100% = after Triton X-100 0.1%) is reported as 3 min and the “t1/2 of fluorescence increase (calcein release)” value ([4]; liposomes 0.1 mg lipid/mL, 20 mM MOPS/Tris pH 7.3, 0.2 mM EDTA, fluorescence 520 nm (excitation 490 nm)) is reported as roughly 18 s.

For Ac-WVGMALENRKLKKDRLKVLKMLRWT-NH2 [A1], the “effect on respiration rate of mitochondria” value [3] was “does not reduce the rate of enzyme activity; also recorded: almost does not change”, the “calcein release compared with P4 and A4” value [4] was “more than two orders of magnitude slower” and the “rate of fluorescence increase (calcein release)” value [4] was < 1 % of the final level per 1 min. The Ki ([1]; solubilized bovine heart CcO 20 nM, oxygen uptake, Clark electrode, 25 °C, BM 50 mM Hepes/Tris pH 7.6, 50 mM KCl, 1 mM (0.05%) DM, 5 mM ascorbate, 0.1 mM TMPD, 10 μM cytochrome c, fit by Equation (1), read-out: Inhibition of CcO, Solubilized, Ki(app)) was 0.0208 mM.
